Laboratory results taken from patent US10357537B2, “Cyclotides as immunosuppressive agents” (priority 2011, dated 2019).
Values joined by “and” are separate entries in the source; they are usually repeats but may differ in a detail not shown here. Identical values can stand only once. Bridge positions count the residues as written; N and C are the ends. Peptide text beside a SMILES is read from it.

Assays:
IL-2 release in PBMCs = test: IL-2 release of PBMC, ELISA-based FACS; type: cell-based, human; conditions: PHA-L 24 h, PMA/ionomycin 6 h; T20K 4 μM, CsA 5 μg/mL
Experimental: (§1) Following purification, PBMCs were equilibrated for 2 h at 37° C. […] This was followed by washing of each well with 100 μl PBS (centrifugation for 5 min, 1000 rpm, 20° C.) and re-suspending the cells in 100 μl medium for further assays.
(§2) Activated cells were resuspended in 50 μl of medium, transferred into a 96-well plate and treated with 10 μg/ml PHA-L. After incubation for 24 h cells were re-stimulated with PMA (50 ng/ml) und ionomycin (500 ng/ml) for 6 h. Next, the cells were transferred into Eppendorf tubes, centrifuged (5 min, 3000 RPM, 20° C.) und 50 μl of the supernatant was again transferred into new tubes and stored at −20° C. Production of cytokines was measured and quantified using the FlowCytomix™ kit according to manufacturer's instructions.
To analyze the mechanism of cyclotide-mediated anti-proliferation of T-lymphocytes, their effect on the direct release of IL-2 in PBMCs was determined. The cells were treated with a cyclotide and activated with PHA-L. After 24 h the cells were re-stimulated with PMA and ionomycin and the IL-2 concentration in the supernatant (released IL-2) was measured with an ELISA-based FACS methodology (FIG. 12A).

[1] = tested on: IFN-gamma production of activated PBMCs; test: IFN-gamma secretion of PBMC, ELISA-based FACS; type: cell-based, human; conditions: for IFN-gamma production as compared to the control, 36 h: 36 h past stimulation
Experimental: FIG. 14. IFN-γ secretion by cyclotide-treated PBMC. […] Untreated cells were used as control. Following 24 h or 36 h of cultivation, the cells were restimulated with PMA/Ionomycin for further 6 hour. The amount of IFN-γ was measured in the supernatant of cultured cells using an ELISA-based flow cytometric method. The data are presented as mean and standard deviation (SD) of three independent experiments.
as §2
Therefore it is of interest to determine whether cyclotides only have anti-proliferative effects or also affect the effector function of T-lymphocytes, which would directly relate to changes in the IFN-gamma and TNF-alpha production. Therefore, the production of both cytokines of cyclotide-treated, activated PBMCs at an early time point after PBMC activation was tested.

nematodes = test: Relative nematocidal activity (other assays, Table 2); type: in vivo; conditions: some cells print two values separated by a slash
[2] = tested on: IL2 release in human T-cells; test: IL2 release in human T-cells, ELISA; type: cell-based; conditions: CsA, T20K 4 μM, V10K 4 μM; PHA-L, PMA/ionomycin
Experimental: B. IL2 release in human T-cells after treatment with cyclotide. […] After another two hours PHA-L (10 μg/mL) was added to the appropriate wells and incubated over night at 37° C. On the next day T-cells were re-stimulated with Ionomycin (500 ng/mL) and PMA (50 ng/mL) for 6 hours at 37° C. Cells were then centrifuged at 3000 rpm for 5 minutes to gain their supernatants. Supernatants of stimulated T-cells were analyzed for their IL2 release using a human IL-2 ELISA Kit from eBioscience according to the manufacturer's instructions. The color reaction was evaluated at an optical density of 450 nm by the microplate reader Synergy H4 (BioTek).
Moreover, supernatants of stimulated T-cells were analyzed for their IL2 release using a human IL-2 ELISA Kit from eBioscience according to the manufacturer's instructions. The color reaction was evaluated at an optical density of 450 nm by the microplate reader Synergy H4 (BioTek) (FIG. 12B).

[3] = tested on: splenic T-cells of naive mouse group; test: Cytokine release of splenic T-cells of naive EAE mice treated in vitro, ELISA; type: cell-based; conditions: for IL2 release after 48 h incubation: V10K 4 μM, MOG35-55 30 μg/mL
Experimental: FIG. 22. Effect on cytokine release of ex vivo isolated PBMC at day 1 and 2. […] To approve this EAE TH bias towards TH17 and TH1 cells, IL4 release was again analyzed, but this TH2 cytokine was not detectable (I, J), as already indicated in (D).
Spleens of sacrificed mice were taken and transferred into a 6 cm Petri Dish with 5 mL sterile PBS. To receive a spleenocyte suspension, spleens were meshed and filtered through 70 μm nylon sieve. Cells were centrifuged at 1200 rpm for 5 minutes and resuspended in RPMI 1640 media supplemented with 10% fetal calf serum (FCS), 2 mM L-glutamine, penicillin (100 U/mL), and streptomycin (100 μg/mL). Spleenocytes were cultivated at a concentration of 3×10^6/mL in a 48-well flat-bottom plate (500 μL/well). Cells were stimulated with 30 μg/mL MOG35-55 or left untreated and incubated at 37° C. for three days. Supernatants and cells were taken stored at −20° C. until further experiments. […] After 12 hours MOG or T20K was added to appropriate wells. Supernatants were stored after 24 hours and after 48 hours at −20° C.
Supernatants of stimulated spleenocytes were analyzed for their IL2, IL17, INFγ, IL4 and IL22 cytokine release using anti-mouse antibodies for ELISA from eBioscience according to the manufacturer's instructions. The color reaction was evaluated at an optical density of 450 nm by the microplate reader Synergy H4 (BioTek).

PHA-L-stimulated PBMC = test: Proliferation of PHA-L-stimulated CFSE-labelled PBMC with or without exogenous IL-2; type: cell-based, human; conditions: cyclotides 4 μM, CsA 5 μg/mL, 3 day culture; for proliferation with exogenous IL-2: IL-2 10 U/mL
Experimental: FIG. 13. Proliferation capacity of cyclotide-treated PBMC in the presence of exogenous IL-2. […] The cells were cultured without exogenous IL-2 (10 U/mL) (A and B) or in the presence of IL-2 (C and D). The CFSE-labelled cells were measured after a 3 day culture period by flow cytometry and representative data are presented in dot plots (A and C). Data are presented as mean and standard deviation (SD) of three independent experiments.
as §1
Purified PBMCs (5*10^6 cells/ml) were incubated with […] of the fluorescent dye CFSE (5-carbofluoreszenein-ciacetat-succinylester) for 10 min at 37° C. The reaction was stopped using medium, cells were washed one time with medium by centrifugation (10 min, 300×g, 20° C.) and diluted with medium to 4*10^6 cells/ml.

## CC(C)C[C@@H]1NC(=O)CNC(=O)[C@H](CC(N)=O)NC(=O)[C@H](CCCNC(=N)N)NC(=O)[C@H]([C@@H](C)O)NC(=O)[C@@H]2CSSC[C@@H]3NC(=O)[C@H]([C@@H](C)O)NC(=O)CNC(=O)CNC(=O)[C@H](C(C)C)NC(=O)[C@@H]4CSSC[C@H](NC(=O)[C@H](CCCCN)NC(=O)[C@H](CSSC[C@H](NC(=O)[C@H](C(C)C)NC(=O)[C@@H]5CCCN5C1=O)C(=O)NCC(=O)N[C@@H](CCC(=O)O)C(=O)N[C@@H]([C@@H](C)O)C(=O)N4)NC(=O)CNC(=O)[C@@H]1CCCN1C(=O)[C@H]([C@@H](C)O)NC(=O)[C@H](CC(N)=O)NC3=O)C(=O)N[C@@H](CO)C(=O)N[C@@H](Cc1c[nH]c3ccccc13)C(=O)N1CCC[C@H]1C(=O)N[C@@H](C(C)C)C(=O)N2 [Kalata T20K] (cyclo(CGETCVGGTCNTPGCKCSWPVCTRNGLPV); disulfide 1-15, 5-17, 10-22 (inferred); ring closure inferred)
IL-2 release in PBMCs
  IL-2 release as compared to the control cells: 24%±18.6
[1]; 24 h + 6 h PMA/ionomycin, T20K 4 μM, CsA 5 μg/mL
  IFN-gamma concentration as compared to the control, 24 h: 21%±13.2
[1]
  IFN-gamma production as compared to the control, 36 h: did not induce significant changes in the level of IFN-gamma
nematodes
  Relative activity in other assays (fold difference to kB1): nematocidal: 3.0 fold difference to kB1 and 2.6 fold difference to kB1
[2]
  IL2 release in human T-cells: significant inhibition of cell proliferation in accordance to the IL2 level
[3]; T20K 4 μM
  IL17 production after 48 h: inhibited
  IL2 release after 48 h incubation: significantly inhibited
[3]; T20K 4 μM compared with CsA 5 μg/mL
  IL2 inhibition after 24 h: non-significant to the immune suppressive agent CsA
[3]; dependent on the cyclotide addition
  INFγ and IL22 cytokine release: repressed significantly
PHA-L-stimulated PBMC
  proliferation with exogenous IL-2: 91%±1.4
  proliferation as compared to the control cells, without exogenous IL-2: 29%±24

## kalata B1 mutant GLPVCGETCKGGTCNTPGCTCSWPVCTRN (SEQ ID No. 10) [Kalata V10K]
IL-2 release in PBMCs
  IL-2 release as compared to the control cells: no effect on the release of IL-2
[1]
  IFN-gamma production as compared to the control, 36 h: did not induce significant changes in the level of IFN-gamma
nematodes
  Relative activity in other assays (fold difference to kB1): nematocidal: <0.2 fold difference to kB1
[2]
  IL2 release in human T-cells: comparable results
[3]; T20K 4 μM
  IL2 release after 48 h incubation: shows a inhibitory capacity towards IL2 release
PHA-L-stimulated PBMC
  proliferation with exogenous IL-2: did not change the effect on proliferation
  proliferation as compared to the control cells, without exogenous IL-2: no effect on the proliferation
